The values that follow come from patent US9884063B2, “Amido-substituted azole compounds” (Bayer Pharma Aktiengesellschaft, priority 2014, dated 2018).

Molecules are shown by their SMILES.

Experiment [1] has as its system wildtype Wnt signaling cascade. The experiment is described as follows: HEK293 TOP Assay (Super TopFlash luciferase reporter, Wnt-3a stimulated). Particulars: Homo sapiens, HEK293, 16 h. The class given is cell-based. The method in brief:
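Compounds (50 μM down to 15 nM, 3.16-fold steps, in CAFTY buffer pH 7.4, 2 mM Ca2+, 0.01% BSA) tested in parallel on TOP and FOP HEK293 reporter lines to define selective wildtype Wnt inhibition. Pathway driven by recombinant human Wnt-3a applied at 2500–5 ng/ml in two-fold dilutions.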
Background: A reporter such as luciferase makes a cellular process visible.

The target in a further experiment is T1, TNKS2 (Homo sapiens, UniProt Q9H2K2).
T1 sequence (Q9H2K2 1-1166): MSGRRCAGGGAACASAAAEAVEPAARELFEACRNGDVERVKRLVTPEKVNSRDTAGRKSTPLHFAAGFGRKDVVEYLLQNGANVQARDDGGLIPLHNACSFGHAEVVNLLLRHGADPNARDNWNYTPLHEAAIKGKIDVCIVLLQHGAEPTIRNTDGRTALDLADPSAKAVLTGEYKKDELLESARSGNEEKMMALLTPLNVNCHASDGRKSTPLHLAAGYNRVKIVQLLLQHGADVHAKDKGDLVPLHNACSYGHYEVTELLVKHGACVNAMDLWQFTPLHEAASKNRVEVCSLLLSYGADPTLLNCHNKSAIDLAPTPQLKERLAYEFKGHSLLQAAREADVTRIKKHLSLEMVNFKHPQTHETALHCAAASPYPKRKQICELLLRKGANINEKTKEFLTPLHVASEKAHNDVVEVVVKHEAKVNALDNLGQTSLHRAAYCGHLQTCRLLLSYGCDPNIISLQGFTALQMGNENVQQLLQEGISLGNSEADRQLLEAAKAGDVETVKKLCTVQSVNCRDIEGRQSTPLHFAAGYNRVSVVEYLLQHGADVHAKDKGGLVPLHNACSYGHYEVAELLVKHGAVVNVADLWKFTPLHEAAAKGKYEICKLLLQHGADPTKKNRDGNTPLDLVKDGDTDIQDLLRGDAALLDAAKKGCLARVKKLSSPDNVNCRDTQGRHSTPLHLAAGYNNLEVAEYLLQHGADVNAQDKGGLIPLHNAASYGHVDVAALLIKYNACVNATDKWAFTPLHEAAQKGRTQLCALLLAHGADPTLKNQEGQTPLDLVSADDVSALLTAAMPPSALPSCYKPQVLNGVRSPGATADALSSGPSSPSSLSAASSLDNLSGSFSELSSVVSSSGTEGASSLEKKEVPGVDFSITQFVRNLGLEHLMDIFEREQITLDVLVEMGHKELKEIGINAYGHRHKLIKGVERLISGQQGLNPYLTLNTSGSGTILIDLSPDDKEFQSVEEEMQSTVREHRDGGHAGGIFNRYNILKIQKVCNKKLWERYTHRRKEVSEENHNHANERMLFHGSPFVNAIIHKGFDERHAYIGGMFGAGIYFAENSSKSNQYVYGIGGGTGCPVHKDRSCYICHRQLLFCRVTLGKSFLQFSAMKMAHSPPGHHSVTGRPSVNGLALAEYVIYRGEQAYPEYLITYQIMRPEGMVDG
The experiment is described as follows: Modified TNKS2 Assay 2 (auto-parsylation, [3H]-NAD+ SPA). The experiment is classed as biochemical. Conditions: 6 nM TNKS2, 96 well.

The mark [2] stands for this setting: HEK293 TOP reporter cell line, Wnt-3a at EC50, 16 hours incubation, compound dilution series 50 μM to 15 nM.

Consider `CC1CCCN(CCNC(=O)c2[nH]cnc2C(=O)Nc2ccc(NC(=O)c3ccc(F)cc3Cl)cc2)C1` (stereo not shown) [Example 208, N^4-{4-[(2-chloro-4-fluorobenzoyl)amino]phenyl}-N^5-[2-(3-methylpiperidin-1-yl)ethyl]-1H-imidazole-4,5-dicarboxamide], for which the concentration for half-maximal inhibition (IC50) (usually the concentration at which inhibition is half-maximal) in experiment [1] (setting [2]) was found to be 30 nM; on TNKS2 it was 2 nM.
Taken in the same sequence, the figures for `CNC(=O)c1nc[nH]c1C(=O)Nc1ccc(NC(=O)c2cnccc2Cl)cc1` [Example 254, N^5-(4-{[(4-chloropyridin-3-yl)carbonyl]amino}phenyl)-N^4-methyl-1H-imidazole-4,5-dicarboxamide] were 750 nM and 430 nM.
With `O=C(Nc1ccc(NC(=O)c2nc[nH]c2C(=O)NC(CO)CO)cc1)c1ccccc1Cl` [Example 157, N^4-{4-[(2-chlorobenzoyl)amino]phenyl}-N^5-(1,3-dihydroxypropan-2-yl)-1H-imidazole-4,5-dicarboxamide], the IC50 in experiment [1] (setting [2]) worked out at 8400 nM; against TNKS2, 1400 nM.
Taken in the same sequence, the figures for `CC(C)(CN1CCCCC1)NC(=O)c1[nH]cnc1C(=O)Nc1ccc(NC(=O)c2ccccc2Cl)cc1` [Example 171, N^4-{4-[(2-chlorobenzoyl)amino]phenyl}-N^5-[2-methyl-1-(piperidin-1-yl)propan-2-yl]-1H-imidazole-4,5-dicarboxamide] were 670 nM and 340 nM.
Consider `CNC(=O)c1ncoc1C(=O)Nc1ccc(NC(=O)c2ccc(F)cc2Cl)cc1` [Example 11, N^5-{4-[(2-chloro-4-fluorobenzoyl)amino]phenyl}-N^4-methyl-1,3-oxazole-4,5-dicarboxamide], for which the IC50 came out at 730 nM in experiment [1] (setting [2]); 730 nM in experiment [1] (HEK293 TOP reporter cells, Wnt3a at EC50, 16 hours, luciferase); 910 nM on TNKS2.
Turning to `CNC(=O)c1nc[nH]c1C(=O)Nc1ccc(NC(=O)c2ccc(O)cc2Cl)cc1` [Example 122, N^5-{4-[(2-chloro-4-hydroxybenzoyl)amino]phenyl}-N^4-methyl-1H-imidazole-4,5-dicarboxamide], the half-maximal inhibitory concentration (IC50) turned out to be 280 nM in experiment [1] (setting [2]) and 530 nM against TNKS2.
